Measurements as given in PMC12323867 (RSC Medicinal Chemistry, 2025).
Where two headings read alike, the source gives them in different places. One block for each compound: values may come before it.

Experiments:
[1] = target: T1, LSD1-HDAC1-CoREST complex (Homo sapiens, UniProt O60341); assay: LSD1 HRP-coupled demethylase assay, SP2509/SP2577 analogues; format: biochemical
T1 construct: full length native LSD1 (UniProt ID: O60341); made in house; host or cells: HEK 293F cells (co-transfection, pcDNA3 vectors)
Description: The analogues synthesised were then tested for their ability to inhibit LSD1 using purified LSD1-HDAC1-CoREST complex (Fig. 2B). We used an established fluorescent read out horseradish peroxidase (HRP) assay to monitor LSD1 enzymatic activity in the CoREST complex[8] (see ESI ^† for full details).
(§1) 2. Supplementary Information: Biology
(§2) 2.1. LSD-HDAC1-CoREST expression and purification
(§3) Lysis Buffer (Buffer A) Wash Buffer (Buffer B)
(§4) • 50 mM Tris/Cl pH 7.5 • 50 mM Tris/Cl pH 7.5
(§5) • 50 mM Potassium Acetate • 50 mM Potassium Acetate […]
(§6) Cleavage Buffer (Buffer C) Gel Filtration Buffer (Buffer D)
(§7) • 50 mM Tris/Cl pH 7.5 Filtered at vacuum.
(§8) • 50 mM Potassium Acetate • 50 mM Tris/Cl pH 7.5
(§9) • 5 % v/v Glycerol • 50 mM Potassium Acetate
(§10) • 0.5 mM tris(2- • 0.5 mM TCEP carboxyethyl)phosphine (TCEP)
(§11) The CoREST ternary complex was comprised of full length native LSD1 (UniProt ID: O60341), full length HDAC1 (UniProt ID: Q13547) and N-terminally truncated RCOR1 (86-485aa) (UniProt ID:
(§12) Q9UKL0). Protein constructs were cloned into pcDNA3 vector. The RCOR1 constructs contained an N-terminal (His)10(Flag)3 tag followed by a Tev protease cleavage site. The constructs for ternary complex were co-transfected into suspension-grow HEK 293F cells (Thermofisher Scientific) with polyethylenimine (PEI) (Sigma) and harvested after 48 hours. This section of the procedure was carried out as described previously in literature.11,12
(§13) Cell pellets from 1.2 L culture were defrosted, and buffer A (30 mL) was added. The solution was sonicated (Soniprep 150) in an beaker of ice using a 9 mm probe at 10 ampules; operated with 10 […]
2.2. SP2509/SP2577 analogues LSD1 HRP-coupled demethylase assay protocol The commercial reagents for the assay were HRP and Amplex® Ultrared, which are available to purchase from ThermoFisher (31490) and Invitrogen (10737474), respectively. HRP was made up to 8 mg/mL stock solution in 1xPBS buffer, divided into 10 µL aliquots, snap-frozen in liquid nitrogen and stored at -80 °C. Amplex® Ultrared was made up to 10 mM solution in DMSO, divided into 20 µL aliquots and wrapped in foil, away from light and stored at -20 °C. For each assay experiment, CoREST complex was diluted to 500 nM in assay buffer (20 mM HEPES pH 7.5 and 50 mM NaCl).
HRP was defrosted by diluting each aliquot in 90 µL 1xPBS solution, making a 0.8 mg/mL solution.
Amplex® Ultrared was made up to 200 µM in assay buffer. HRP and Amplex® Ultrared were pre-mixed before addition to the plate. H3K4Me2 substrate (4 mM in deionised water) was diluted to 300 µM in assay buffer. All stocks were stored on ice during assay preparation.
The assay was carried out using a ‘black well’ 96 well plate (Corning no. 3915) in a reaction volume of 100 μL. The final concentrations in the assay were as follows: 50 nM CoREST complex, 10 μM Amplex® UltraRed, 0.04 mg/mL HRP and 15 μM H3K4Me2 peptide substrate. The final DMSO concentration in each well was 1.1 %. Three wells of each experiments were designated ‘background controls’ and contained 85 μL assay buffer, premixed Amplex® UltraRed and HRP (10 µL) and H3K4Me peptide substrate (300 μM, 5 µL).
A stock solution of inhibitor (1 -5 mM in DMSO) was subjected to an inhibitor dilution series, in Eppendorf tubes, in 100 % DMSO. Each new inhibitor stock (4 μL) was diluted in assay buffer (1 in 75) within a new Eppendorf set with assay buffer (20 mM HEPES pH 7.5 and 50 m M NaCl), ensuring the percentage of DMSO was consistent throughout the series. To each well of interest, Inhibitor in assay buffer (75 μL) was added, and CoREST complex (500 nM, 10 µL) was added thereafter. The plate was placed on a rocker and pre -incubated for 30 mins. To each well, premixed Amplex® UltraRed and HRP (10 µL) was added before H3K4Me 2 peptide substrate in assay buffer solution (300 μM, 5 µL) was added to the wall of the plate. The plate was covered in foil and spun down for one minute before being placed in the plate reader. The final percentage concentration of DMSO in […]

H3K4me2 in HCT116 cells = assay: Histone methylation H3K4me2 by western blot; format: cell-based, human; conditions: HCT116, 0.1–10 μM, 24 hours, H3K4me2 antibody
Description: We next screened 25–33 and SP2509 over a concentration range of 0.1–10 μM in HCT116 cells (obtained from ATCC, CCL-247) and determined LSD1 abundance after 24 hours with an antibody for LSD1 (Fig. S4 ^†). […] Using the same conditions, we also determined the effects of SP2509, 25, 27, 28, 30 and 31 on histone H3 lysine 4 dimethyl (H3K4me2) a validated substrate for LSD1 using a specific antibody for H3K4me2 (Fig. S4 ^†).
Compounds 39–41, 49, 52 and 54 were screened for LSD1 degradation in HCT116 cells using a specific antibody for LSD1. This was performed side-by-side with TCP. Compounds were tested at concentration ranges of 0.2–20 μM and LSD1 abundance was quantified at 24 hours (Fig. S5 ^†). 49, 52 and 54 were also evaluated at 48 and 72 hours. […] We also determined the effects of these compounds on the histone methyl marker H3K4me2 (Fig. S5 and S6 ^†).
2.5 Protocols for LSD1 degradation and histone methylation in HCT116 cells HCT116 human colon carcinoma cells were grown in Dulbecco’s Modified Eagle Medium (DMEM) supplemented with Fetal Bovine Serum (FBS, 10% final concentration) and 1x glutamine/penicillin/streptomycin. Cells were incubated at 37 °C and 5% CO2. Cells were treated with compounds (0.1-20 µM) with a final DMSO volume of 0.04%. DMSO (0.04%) treated and untreated (WT) cells were included as controls.
HCT116 cells were seeded into six well plates (400000 cells per well) and after requisite compound treatment time (24h, 48h, 72h) cells were harvested and either snap-frozen in liquid nitrogen or lysed in lysis buffer (50mM Tris-HCl, 150 mM NaCl, 0.5% NP-40, 0.5% Triton X-100 + protease inhibitor) on ice for 30 mins. This was centrifuged (15000 rpm, 4 °C, 15 mins) and the supernatant collected.
H2SO4 (0.4 M, equal volume) was added to the pellets for histone extraction and the tubes incubated overnight at 4 °C. Following this, the histone extract was centrifuged (15000 rpm, 4 °C, 15 mins) and the supernatant collected. Protein concentrations of whole cell extract were quantified via Bradford Assay using BIO-RAD Protein Assay Dye Reagent Concentrate.
Western blots were run on NuPAGE 4-12% Bis-Tris gels, with 30 µg of protein (whole cell extract) or an equivalent volume of histone extract loaded per lane, with all extracts dyed with 4x NuPAGE LDS Sample Buffer. PageRuler Plus Prestained Ladder was used as a reference. Gel electrophoresis was carried out at 140 V for 60-90 mins, following which the proteins were transferred onto nitrocellulose membrane at 30 V for 60 mins. Membranes were blocked in LI-COR Intercept Blocking Buffer overnight at RT on a roller, following which the membrane was probed with primary antibodies for 1 h at RT. The membrane was washed with PBS + 0.1% Tween (3 x 10 mins), then incubated with secondary antibodies for 50 mins at RT. The membrane was washed again (PBS Tween 2 x 10 mins, PBS 1 x 10 mins) following which the blot was visualised with the Odyssey Infrared Imaging System. Image processing and quantification was performed with ImageStudio Lite. […]
a-tubulin (mouse) – Sigma, t5168 (1:10000 dilution)

[2] = target: T2, HDAC1-CoREST-LSD1 complex (Homo sapiens, UniProt O60341); assay: LSD1 HRP-coupled demethylase assay, TCP analogues; format: biochemical; conditions: for LSD1 inhibition at 50 μM: single concentration 50 μM, compared to no compound treatment control
T2 construct: full length native LSD1 (UniProt ID: O60341); made in house; host or cells: HEK 293F cells (co-transfection, pcDNA3 vectors)
Description: We then evaluated LSD1 inhibition in the LSD1-HDAC1-CoREST complex using the established horseradish peroxidase (HRP) assay.[8]
as §1, §2, §3, §4, §5, §6, §7, §8, §9, §10, §11, §12, §13
Components and concentrations for the HRP-coupled demethylase assay […]
The assay components are shown at their final concentrations per well in the table above. CoREST complex (HDAC 1/RCOR1/LSD1) was added to the assay buffer alongside either DMSO or the relevant inhibitor at the desired concentration on black-walled 96 well plates. Alongside this was another control, with DMSO but no CoREST or inhibitor. Plates were spun to 3000 rpm between each addition of a reagent. Plates were incubated at 20 °C for 30 mins, following which HRP/Amplex Ultrared (1:1 mixture) and peptide was added. Plates were spun, then read on an PerkinElmer 2030 Explorer plate reader, with excitation of 530 nm and […] of 590 nm, with 7 readings taken over […]
Components, where bought in, are listed below:
HRP – Pierce™ Horseradish Peroxidase, Invitrogen
H3K4me2 peptide – Histone H3 dimethyl lysine-4 peptide, Enzo Life Sciences Amplex UltraRed, ThermoFisher Scientific
To the assay buffer was added HRP/AMP in each well to concentrations equal to those in above, following which hydrogen peroxide solution (diluted from 3% hydrogen peroxide solution into a 20 mM stock) was added, in a 1 in 3 dilution series with final concentrations starting from 3 mM.
Negative control wells contained either 100% buffer or as above with no hydrogen peroxide solution.

[3] = LSD1 enzymatic activity, complex 50 nM, HRP assay, SP2509 value is mean of three sets, read-out: LSD1-HDAC1-CoREST IC50
[4] = per parallel set, each set with SP2509 as reference standard, read-out: IC50 from dose response curves (Figure S1)

IC50 [1, 3]: 0.0145 µM
IC50 [1, 4]: 0.015 µM
Compound: COc1ccc(O)c(C(C)=NNC(=O)c2cccc(S(=O)(=O)N3CCOCC3)c2)c1 [compound 8]

IC50 [1, 3]: 0.0128 µM
IC50 [1, 4]: 0.013 µM
Compound: COc1ccc(O)c(C=NNC(=O)c2cccc(S(=O)(=O)N3CCOCC3)c2)c1 [compound 9]

IC50 [1, 3]: 0.0124 µM
IC50 [1, 4]: 0.012 µM
Compound: COc1ccc(C(C)=NNC(=O)c2cccc(S(=O)(=O)N3CCOCC3)c2)c(O)c1 [compound 10]

IC50 ([1]; LSD1 enzymatic activity, complex 50 nM, HRP assay, read-out: LSD1-HDAC1-CoREST IC50): > 20 µM
Compound: CC(=NNC(=O)c1cccc(S(=O)(=O)N2CCN(C(=O)OC(C)(C)C)CC2)c1)c1cc(Cl)ccc1O [compound 11]

IC50 [1, 3]: 0.113 µM
Compound: C/C(=N\NC(=O)c1cccc(S(=O)(=O)N2CCOCC2)c1)c1ccc(OCCOCCC(=O)OC(C)(C)C)cc1O [compound 12]

IC50 [1, 3]: 0.159 µM
Compound: C/C(=N\NC(=O)c1cccc(S(=O)(=O)N2CCOCC2)c1)c1cc(OCCOCCC(=O)OC(C)(C)C)ccc1O [compound 13]

IC50 [1, 3]: 0.0206 µM
IC50 [1, 4]: 0.021 µM
Compound: C/C(=N\NC(=O)c1cccc(S(=O)(=O)N2CCNCC2)c1)c1cc(Cl)ccc1O [compound 14]

IC50 [1, 3]: 0.108 µM
Compound: C/C(=N\NC(=O)c1cccc(S(=O)(=O)N2CCN(CCOCCC(=O)OC(C)(C)C)CC2)c1)c1cc(Cl)ccc1O [compound 15]

Compound: C/C(=N\NC(=O)c1cccc(S(=O)(=O)N2CCOCC2)c1)c1cc(OCCOCCC(=O)N[C@H](C(=O)N2C[C@H](O)C[C@H]2C(=O)NCc2ccc(-c3scnc3C)cc2)C(C)(C)C)ccc1O [compound 25]
H3K4me2 abundance (H3K4me2 in HCT116 cells): no increase in H3K4me2

Compound: C/C(=N\NC(=O)c1cccc(S(=O)(=O)N2CCOCC2)c1)c1cc(OCCCC(=O)N[C@H](C(=O)N2C[C@H](O)C[C@H]2C(=O)NCc2ccc(-c3scnc3C)cc2)C(C)(C)C)ccc1O [compound 27]
H3K4me2 abundance (H3K4me2 in HCT116 cells): no increase in H3K4me2

Compound: C/C(=N\NC(=O)c1cccc(S(=O)(=O)N2CCOCC2)c1)c1cc(OCCCCCCCC(=O)N[C@H](C(=O)N2C[C@H](O)C[C@H]2C(=O)NCc2ccc(-c3scnc3C)cc2)C(C)(C)C)ccc1O [compound 28]
H3K4me2 abundance (H3K4me2 in HCT116 cells): no increase in H3K4me2

Compound: C/C(=N\NC(=O)c1cccc(S(=O)(=O)N2CCOCC2)c1)c1cc(OCCOCCC(=O)NCCNc2cccc3c2C(=O)N(C2CCC(=O)NC2=O)C3=O)ccc1O (centres unmarked) [compound 30]
H3K4me2 abundance (H3K4me2 in HCT116 cells): no increase in H3K4me2

Compound: C/C(=N\NC(=O)c1cccc(S(=O)(=O)N2CCOCC2)c1)c1cc(OCCOCCOCCC(=O)NCCNc2cccc3c2C(=O)N(C2CCC(=O)NC2=O)C3=O)ccc1O (centres unmarked) [compound 31]
H3K4me2 abundance (H3K4me2 in HCT116 cells): no increase in H3K4me2

LSD1 inhibition at 50 μM ([2]; complex 50 nM): modest inhibition
Compound: Cc1ncsc1-c1ccc(CNC(=O)[C@@H]2C[C@@H](O)CN2C(=O)[C@@H](NC(=O)CCCCC(=O)NC2CC2c2ccccc2)C(C)(C)C)cc1 (some centres unmarked) [compound 38]

LSD1 inhibition at 50 μM ([2]; complex 50 nM): not LSD1 inhibitors
Compound: Cc1ncsc1-c1ccc(CNC(=O)[C@@H]2C[C@@H](O)CN2C(=O)[C@@H](NC(=O)CCCCCCCCCCC(=O)NC2CC2c2ccccc2)C(C)(C)C)cc1 (some centres unmarked) [compound 39]

LSD1 inhibition at 50 μM ([2]; complex 50 nM): not LSD1 inhibitors
Compound: O=C(CCCCC(=O)NC1CC1c1ccccc1)NCCNc1cccc2c1C(=O)N(C1CCC(=O)NC1=O)C2=O (centres unmarked) [compound 40]

LSD1 inhibition at 50 μM ([2]; complex 50 nM): not LSD1 inhibitors
Compound: O=C(CCCCCCCCCCC(=O)NC1CC1c1ccccc1)NCCNc1cccc2c1C(=O)N(C1CCC(=O)NC1=O)C2=O (centres unmarked) [compound 41]

IC50 ([2]; complex 50 nM, mean ± SD from three replicates): 0.094 µM
enhancement in LSD1 inhibition compared to TCP ([2]; ratio of IC50 values): approximately 100 fold
Compound: COC(=O)c1ccc([C@@H]2C[C@H]2N)cc1 [compound 55]
